Test results from patent US12256736B2, “Pyridazine compound and herbicide” (Nippon Soda Co., Ltd., priority 2019, dated 2025).

What was measured:
Assay type in all cases: in vivo
[1] = test system: Digitaria ciliaris; assay: Test Example 2: tests of treating shoots, herbicidal index; settings: 63 g/ha, sprayed onto shoots, four weeks after the treatment
Method: (§1) An emulsifiable concentrate for test was prepared in the same manner as that described in Test Example 1.
(§2) Seeds of each of Lolium multiflorum, Digitaria ciliaris, and Zea mays for feed were placed in a surface layer of soil filled in a pot with a size of 150 cm^2 and then lightly covered with soil. Subsequently, the pots were kept in a greenhouse to allow the plants to grow. When each of Lolium multiflorum and Digitaria ciliaris grew to a shoot height ranging from 2 to 4 cm, and Zea mays for feed grew to a shoot height ranging from 20 to 30 cm, the emulsifiable concentrate mentioned above was diluted with water so as to have a specified amount of the active ingredient, and then sprayed onto the shoot parts by means of a small-sized sprayer at an application rate of 250 L of water per hectare.
(§3) Four weeks after the treatment, the weight of the shoot part of the alive plant in the untreated plot and the treated plot with respect to each of Lolium multiflorum, Digitaria ciliaris, and Zea mays for feed was measured. The herbicidal index was calculated according to the calculation expression described below.
(§4) (4) Calculation Expression for Herbicidal Index Herbicidal index (%)=[(Weight of the shoot part of the alive plant in the untreated plot−Weight of the shoot part of the alive plant in the treated plot)/(Weight of the shoot part of the alive plant in the untreated plot)]×100
(§5) A diluted emulsifiable concentrate of the compound of A-2 was sprayed at a dosage of 63 g of the compound per hectare.
(§6) In addition, with respect to the compound (A) described in Patent Document 1, the same application as described above was carried out.

[2] = test system: Lolium multiflorum; assay: as above; settings: 63 g/ha, sprayed onto shoots, four weeks after the treatment
Method: as §1, §2, §3, §4, §5, §6

[3] = test system: Zea mays for feed; assay: Test Example 2: tests of treating shoots, herbicidal index (crop); settings: 63 g/ha, sprayed onto shoots (crop, shoot height 20 to 30 cm), four weeks after the treatment
Method: as §1, §2, §3
(4) Calculation Expression for Herbicidal Index Herbicidal index (%)=[(Weight of the shoot part of the alive plant in the untreated plot−Weight of the shoot part of the alive plant in the treated plot)/(Weight of the shoot part of the alive plant in the untreated plot)]×100 […]

[4] = test system: Abutilon theophrasti; assay: Test Example 3: spraying onto shoots, herbicidal index; settings: sprayed onto shoots, three weeks after the treatment
Method: as §1
(§7) Seeds of each of Zea mays for feed, Alopecurus myosuroides, Lolium multiflorum, Avena sativa, Digitaria ciliaris, Setaria faberi, Abutilon theophrasti, and Amaranthus retroflexus were placed in a surface layer of soil filled in a pot with a size of 150 cm^2 and then lightly covered with soil. Subsequently, the pots were kept in a greenhouse to allow the plants to grow. When each of Alopecurus myosuroides, Lolium multiflorum, Avena sativa, Digitaria ciliaris, Setaria faberi, Abutilon theophrasti, and Amaranthus retroflexus grew to a shoot height ranging from 2 to 4 cm, and Zea mays for feed grew to a shoot height ranging from 20 to 30 cm, the emulsifiable concentrate mentioned above was diluted with water so as to have a specified amount of the active ingredient, and then sprayed onto the shoot parts by means of a small-sized sprayer at an application rate of 250 L of water per hectare.
(§8) Three weeks after the treatment, the weight of the shoot part of the alive plant in the untreated plot and the treated plot with respect to each plant was measured. The herbicidal index was calculated according to the calculation expression described below.
as §4
(§9) A diluted emulsifiable concentrate of the compound of A-2 was sprayed at a dosage of 250 g or 63 g of the compound per hectare.
as §6

[5] = test system: Alopecurus myosuroides; assay: as above; settings: sprayed onto shoots, three weeks after the treatment
Method: as §1, §7, §8, §4, §9, §6

[6] = test system: Amaranthus retroflexus; assay: as above; settings: sprayed onto shoots, three weeks after the treatment
Method: as §1, §7, §8, §4, §9, §6

[7] = test system: Avena sativa; assay: as above; settings: sprayed onto shoots, three weeks after the treatment
Method: as §1, §7, §8, §4, §9, §6

[8] = test system: Digitaria ciliaris; assay: as above; settings: sprayed onto shoots, three weeks after the treatment
Method: as §1, §7, §8, §4, §9, §6

[9] = test system: Lolium multiflorum; assay: as above; settings: sprayed onto shoots, three weeks after the treatment
Method: as §1, §7, §8, §4, §9, §6

[10] = test system: Setaria faberi; assay: as above; settings: sprayed onto shoots, three weeks after the treatment
Method: as §1, §7, §8, §4, §9, §6

[11] = test system: Zea mays for feed; assay: Test Example 3: spraying onto shoots, herbicidal index (crop); settings: sprayed onto shoots (crop, shoot height 20 to 30 cm), three weeks after the treatment
Method: as §1, §7, §8, §4, §9, §6

Structure (SMILES) | Herbicidal index Digitaria ciliaris [1] | Herbicidal index Lolium multiflorum [2] | Herbicidal index Zea mays for feed [3] | Herbicidal index Abutilon theophrasti ([4]; 63 g ai/ha) | Herbicidal index Abutilon theophrasti ([4]; 250 g ai/ha) | Herbicidal index Alopecurus myosuroides ([5]; 63 g ai/ha) | Herbicidal index Alopecurus myosuroides ([5]; 250 g ai/ha) | Herbicidal index Amaranthus retroflexus ([6]; 63 g ai/ha) | Herbicidal index Amaranthus retroflexus ([6]; 250 g ai/ha) | Herbicidal index Avena sativa ([7]; 63 g ai/ha) | Herbicidal index Avena sativa ([7]; 250 g ai/ha) | Herbicidal index Digitaria ciliaris ([8]; 63 g ai/ha) | Herbicidal index Digitaria ciliaris ([8]; 250 g ai/ha) | Herbicidal index Lolium multiflorum ([9]; 63 g ai/ha) | Herbicidal index Lolium multiflorum ([9]; 250 g ai/ha) | Herbicidal index Setaria faberi ([10]; 63 g ai/ha) | Herbicidal index Setaria faberi ([10]; 250 g ai/ha) | Herbicidal index Zea mays for feed ([11]; 63 g ai/ha) | Herbicidal index Zea mays for feed ([11]; 250 g ai/ha)
Cn1ncc(-c2ccc(C(F)(F)F)cc2S(C)(=O)=O)c(O)c1=O [(A)] | 80% | 40% | 50% | 80% | 90% | 50% | 90% | 100% | 100% | 60% | 80% | 80% | 90% | 40% | 50% | 80% | 100% | 40% | 90%
Cn1ncc(-c2ccc(C(F)(F)F)c3c2CCCS3(=O)=O)c(O)c1=O [Compound A-2, 5-(1,1-dioxido-8-(trifluoromethyl)thiochroman-5-yl)-4-hydroxy-2-methylpyridazin-3(2H)-one] | 90% | 100% | 0% | 100% | 100% | 80% | 100% | 100% | 100% | 100% | 100% | 90% | 100% | 100% | 100% | 100% | 100% | 0% | 20%
